Experimental data: patent US20160160189A1, “Truncated Constructs of RIPK3 and Related Uses” (ST. JUDE CHILDREN'S RESEARCH HOSPITAL, priority 2013, published 2016)
Peptide text beside a SMILES is read from it. * marks the point of attachment. Cbz = O=C(OCc1ccccc1)*; CH2F = FC*

Key:
Format in all cases: cell-based, murine
[1] = test system: RIPK3 complexes; assay: DSS crosslinking of necrosome complexes resolved by western blotting; settings: 30 nM AP1; zVAD 50 μM, Nec1 30 μM
Method: A confluent monolayer of the indicated cells was incubated with the appropriate treatment for 30 minutes at 37 degrees. Cells were lysed in a modified, Tris-free NP40 buffer (30 mM HEPES pH 7.4, 150 mM NaCl, and 1% NP40) without protease inhibitors. Protein lysate was quantified according to standard BCA assay (Pierce) and fifty micrograms of each sample was treated with 0.1 mM DSS crosslinking agent (Thermo Scientific, #21658) for 30 minutes at room temperature; the reaction was quenched by the addition of Tris-HCl pH 7.2 to a final concentration of 50 mM for 15 minutes. Crosslinked samples were analyzed by Western blot as described above, using the anti-2A primary antibody for detection.

[2] = test system: RIPK3 necrosome complex (RIPK1, caspase-8); assay: Anti-FLAG immunoprecipitation of necrosome complexes; settings: RIPK3-1xFv, AP1 30 minutes; zVAD 50 μM, Nec1 30 μM
Method: Immunoprecipitation of necrosome complexes were carried out using rabbit anti-FLAG antibodies, and TruBlot IP reagents (Rockland Immunochemicals) to eliminate non-specific signals from immunoglobulin heavy and light chains. Briefly, cell lines were treated as indicated and lysed in NP40 buffer (30 mM Tris, 150 mM NaCl, and 1% NP40) supplemented with protease inhibitors. Twenty micrograms of each sample were reserved for “input,” while 500 μg of total protein from each sample were immunoprecipitated with 0.5 μg antibody conjugated to 30 μL TruBlot anti-Rabbit IgG beads Immunocomplexes were washed 4 times in NP40 buffer, eluted by boiling, then run on western blot. Western blots were analyzed using standard primary antibodies, but TruBlot anti-Rabbit and anti-Mouse HRP-conjugated 14 secondary antibodies were used. A standard anti-Rat-HRP secondary was used to detect caspase-8.

[3] = test system: NIH-3T3 cells stably expressing RIPK3-1xFv; assay: AP1-induced RIPK3 dimerization cell death, IncuCyte imaging; settings: for effect on AP1 (RIPK3 dimerization)-induced cell death: 30 nM AP1, zVAD 50 μM, Nec1 30 μM, TNFR-Fc 200 ng/ml, siRNA 72 h before
Excerpt: Fv domains rapidly dimerize in response to AP1 treatment that facilitated an investigation of the protein-protein interactions involved in RIPK3 activation and necroptosis (27a). For example, an Fv domain was appended to a C-terminus of RIPK3, that is adjacent to the RHIM domain, in an effort to mimic in situ RHIM-dependent interactions that define RIPK3 activation. RIPK3-1xFv was expressed in NIH-3T3 cells, a cell line that lacks endogenous RIPK3 expression and is therefore unresponsive to TNF-induced necroptosis. See, FIGS. 13A and 13B. Cell death responses of NIH-3T3 cells were quantified by construct expression over time using the IncuCyte imaging system, which allows precise quantification of cell death with high temporal resolution. For example, representative images were acquired from an IncuCyte Imager (data not shown). These images were NIH-3T3 cells stably expressing RIPK3-1xFV, treated with 10 nM AP1 (see FIG. 1B for a quantified graphical representation of this cell death). One set of images show a field of these cells undergoing RIPK3-dependent cell death; the media contains the cell impermeable DNA binding dye Sytox Green, which marks cells that have lost membrane integrity in green. Another set of images depicts the same image set, following analysis by the IncuCyte software package. This software counts each green (dead) cell in each image; counted cells are surrounded by purple halos. Each trace shown in this manuscript depicts data averaged from at least 3 independently treated wells of cells, each of which is imaged in at least 4 separate fields. Each experiment shown is representative of at least 3 separate replicates. All experiments on stably transduced cells is representative of at least three separate replicates performed on each of at least two distinct, independently-derived stable lines.
In the examples below, the following compounds were used: Recombinant murine TNF (Peprotech 315-01A) was used at 1 ng/ml unless otherwise specified; AP1 (Now commercialized by Clontech as “B/B Homodimerizer,” catalog #635059) was dissolved in ethanol to a concentration of 100 μM, then diluted in culture media to a final concentration of 30 nM unless otherwise indicated. zVAD (SM 13 Biochemicals SMFMK001) was dissolved in DMSO to a concentration of 50 mM, then diluted to 50 μM in culture media; Necrostatin-1(Sigma N9037-10MG) was dissolved in DMSO to a concentration of 30 mM, then diluted to 30 μM in culture media; TNFR-Fc (Fisher 430-RI-050) was used at a final concentration of 200 ng/ml; Shield drug was a kind gift of Dr. Tom Wandless and was used at a final concentration of 1 μM. SiGenome SMARTpool siRNAs were purchased from Dharmacon/Fisher. Pools targeting murine MLKL(M-061420-01), murine RIPK1 (M-040150-01), and murine caspase-8 (M-043044-01), as well as a non-targeting “scramble” pool(D-001206-14), were used. Two microliters of a 50 μM stock of these siRNAs were delivered to cells in 6-well format using Lipofectamine siRNA-Max reagent (Life Technologies 13778150) according to the manufacturer's instructions. Forty-eight hours later, these cells were re-plated into 24-well format for cell death assays, or harvested for western blot analysis of knockdowns.
These constructs were transduced into NIH-3T3 cells using standard protocols for helper-dependent retroviral transduction. Transduced cells were selected for 5 days in 1 μg/ml puromycin, then grown to confluence and sorted twice for homogenous GFP expression. […]

Row | SMILES | effect of inhibitor on RIPK3 complexes following RIPK3-1xFv dimerization [1] | effect of inhibitor on association of RIPK1 and caspase-8 with the RIPK3 complex [2] | effect on AP1 (RIPK3 dimerization)-induced cell death [3] | effect on AP1 (RIPK3 dimerization)-induced cell death ([3]; listed as Nec1) | inhibitory effects of Nec1 on RIPK3 oligomerization upon knockdown of RIPK1 ([3]; RIPK1 siRNA, 30 nM AP1, 30 μM Nec1)
1 | CN1C(=O)C(Cc2c[nH]c3ccccc23)NC1=S (centres unmarked) [necrostatin-1, Necrostatin-1] | diminished the appearance of these complexes | eliminated formation of stable RIPK1- and caspase-8 containing complexes | suppressed | blocked | abrogated
2 | COC(=O)C[C@H](NC(=O)[C@H](C)NC(=O)[C@@H](NC(=O)OCc1ccccc1)C(C)C)C(=O)CF [zVAD] (Cbz-Val-Ala-Asp(OMe)-CH2F) | increased shift of RIPK3 into higher molecular weight complexes | increased association of these proteins | notably increased the rate and magnitude of necroptosis | – | –
